Experimental findings from patent US20260364182A1, “PROTEOLYSIS-TARGETING CHIMERAS AGAINST THE PAPAIN-LIKE PROTEASE OF SARS-COV-2” (Tocris Cookson Limited, priority 2022, published 2026) are described below.

One experiment has as its system SARS-CoV-2. Kind of experiment: Antiviral assay in infected Vero E6 cells (ATP quantification, Cell Titer Glo). The note with it: Vero E6 cells, MOI 0.05, 72 h; for inhibition at 10 µM / inhibition at 50 µM: Severe acute respiratory syndrome coronavirus 2, Vero C1008, 72 h; for inhibition at 10 µM: read-out: Antiviral Activity, 10 uM (cell viability assay), 10 uM; for inhibition at 50 µM: read-out: Antiviral Activity, 50 uM (cell viability assay), 50 uM.

Another experiment concerns the target T1, SARS-CoV-2 PLpro (Severe acute respiratory syndrome coronavirus 2, UniProt P0DTD1).
T1 construct: The papain-like protease domain (PLpro) of SARS-CoV-2 (SCoV2)
The experiment is described as follows: IC50 inhibitory assay, fluorogenic substrate cleavage by PLpro. Type of experiment: biochemical. The note with it: for IC50: SARS-CoV-2 PLpro 0.1 μM, substrate 10 μM, pH 8.1, 37 °C, 10 min preincubation; for inhibitory potency of PROTAC and parent ligand in binary IC50 experiment (in words): in vitro inhibitory assay, 20 mM HEPES, pH 8.1, 1% DMSO, PROTAC compared with parent ligand. How it is done: The inhibitory activities of compounds against SARS-CoV-2 PLpro were determined in a reaction buffer containing 20 mM HEPES, 40 mM NaCl, 5% glycerol, 2 mM DTT (freshly added before the measurements), pH 8.1, at 37 °C. A fluorescent substrate of SARS-CoV-2 PLpro (Z-Arg-leu-Arg-Gly-Gly-[…]AMC; Biosyntan, Berlin) was used, and the fluorescence signal of the cleaved substrate was monitored using a Tecan Spark® fluorescence spectrophotometer at an […] wavelength of 460/360 nm. SARS-CoV-2 PLpro (10 μL per well) was pipetted into a 96-well plate together with reaction buffer reaction buffer (50 μL per well, final enzyme concentration: 0.1 μM). Compounds (10 μL per well) were added at varying concentrations, and plates incubated at 37 °C for 10 mins. Finally, the reaction was initiated by adding 30 μL of the substrate (final concentration: 10 μM) dissolved in the reaction buffer.
FIG. 1: PROTAC and parent ligand for SARS-CoV-2 PLpro in a binary IC50 experiment. C10778A PROTAC (top left), comprising a SARS-CoV-2 PLpro targeting ligand C10778B (bottom left) connected to thalidomide via a C3 alkyl linker. IC50 values have been determined in an in vitro inhibitory binding assay whereby the fluorescence signal resulting from cleavage of a fluorogenic substrate by PLpro is measured. Inhibition of PLpro is associated with reduced cleavage of the fluorogenic substrate. […] Assay conditions: experiments were performed in 20 mM HEPES buffer containing 40 mM NaCl 5% glycerol, 2 mM DTT at pH 8.1. A fluorogenic substrate for PLpro (Z-Arg-leu-Arg-Gly-Gly-AMC) was used to determine the inhibition rate of compounds. Final DMSO concentration in each reaction was 1%. Measurements were performed in triplicate.

Each structure is given as a SMILES string.

As for `Cc1ccc(C(=O)NCCCCN2CCN(C(=O)Nc3cc(F)cc(CNC(=O)C4CCN([C@H](C)c5cccc6ccccc56)CC4)c3)CC2)cc1N1CCC(=O)NC1=O` [TS567], in the experiment on SARS-CoV-2, the inhibition at 10 µM is under 0% and the inhibition at 50 µM was under 0%. For the same compound, the IC50 against SARS-CoV-2 PLpro was under 10 µM.
As for `C[C@H](c1cccc2ccccc12)N1CCC(C(=O)NCc2cc(F)cc(NC(=O)N3CCN(CCCCOc4ccc5c(c4)C(=O)N(C4CCC(=O)NC4=O)C5=O)CC3)c2)CC1` (stereo partly drawn) [TS530], in the experiment with SARS-CoV-2, the inhibition at 10 µM was under 25% and the inhibition at 50 µM is under 75%. The 50% inhibitory concentration (IC50) against SARS-CoV-2 PLpro is under 10 µM.
Turning to `Cc1ccc(NC(=O)CCOCCOCCNc2cccc3c2C(=O)N(C2CCC(=O)NC2=O)C3=O)cc1C(=O)N[C@H](C)c1cccc2ccccc12` (stereo partly drawn) [TS139], in the experiment on SARS-CoV-2, the inhibition at 10 µM is under 0% and the inhibition at 50 µM is under 25%. This compound gave an IC50 against SARS-CoV-2 PLpro of under 10 µM.
On the same counts, the results for `C[C@H](c1cccc2ccccc12)N1CCC(C(=O)NCc2cc(F)cc(NC(=O)N3CCN(CCOCCOc4cccc5c4C(=O)N(C4CCC(=O)NC4=O)C5=O)CC3)c2)CC1` (stereo partly drawn) [TS424] are under 0%, under 0% and under 10 µM.
Regarding `Cc1ccc(NC(=O)CCCCCNc2cccc3c2CN(C2CCC(=O)NC2=O)C3=O)cc1C(=O)N[C@H](C)c1cccc2ccccc12` (stereo partly drawn) [TS121], in the experiment on SARS-CoV-2, the inhibition at 10 µM was under 0% and the inhibition at 50 µM was under 0%. Further, the 50% inhibitory concentration (IC50) on SARS-CoV-2 PLpro fell in the range of 10 to 25 µM.
In the case of `Cc1ccc(NC(=O)CCCCCCC(=O)N[C@H](C(=O)N2C[C@H](O)C[C@H]2C(=O)NCc2ccc(-c3scnc3C)cc2)C(C)(C)C)cc1C(=O)N[C@H](C)c1cccc2ccccc12` [TS310], in the experiment on SARS-CoV-2, the inhibition at 10 µM was under 0% and the inhibition at 50 µM was under 0%. The same compound returned a concentration for half-maximal inhibition (IC50) against SARS-CoV-2 PLpro of over 25 µM.
In the case of `Cc1ccc(NC(=O)CCOCCOCCOCCOCCNc2cccc3c2C(=O)N(C2CCC(=O)NC2=O)C3=O)cc1C(=O)N[C@H](C)c1cccc2ccccc12` (stereo partly drawn) [TS129], in the experiment with SARS-CoV-2, the inhibition at 10 µM is under 0% and the inhibition at 50 µM was under 0%. For the same compound, the IC50 at SARS-CoV-2 PLpro was in the range of 10 to 25 µM.
Consider `Cc1ccc(NC(=O)CCOCCOCCNc2ccc3c4c(cccc24)C(=O)N(C2CCC(=O)NC2=O)C3=O)cc1C(=O)N[C@H](C)c1cccc2ccccc12` (stereo partly drawn) [TS170], for which, in the experiment with SARS-CoV-2, the inhibition at 10 µM is under 0% and the inhibition at 50 µM is under 25%. This compound came in with a half-inhibitory concentration (IC50) against SARS-CoV-2 PLpro of under 10 µM.
On the same counts, the results for `Cc1ccc(NC(=O)CCNc2cccc3c2C(=O)N(C2CCC(=O)NC2=O)C3=O)cc1C(=O)N[C@H](C)c1cccc2ccccc12` (stereo in doubt) [TS140] are under 0%, under 0% and over 25 µM.
For `Cc1ccc(NC(=O)CCOCCOCCOCCNc2ccc3c4c(cccc24)C(=O)N(C2CCC(=O)NC2=O)C3=O)cc1C(=O)N[C@H](C)c1cccc2ccccc12` (stereo partly drawn) [TS182], in the experiment on SARS-CoV-2, the inhibition at 10 µM is under 0% and the inhibition at 50 µM was under 25%. In addition, on SARS-CoV-2 PLpro, the concentration for half-maximal inhibition (IC50) was under 10 µM.
Regarding `CC(=O)NCc1ccc(-c2cccc([C@@H](C)NC(=O)c3cc(NC4CCNCC4)ccc3C)c2)s1` [Compound C10778B, (R)—N-(1-(3-(5-(Acetamidomethyl)thiophen-2-yl)phenyl)ethyl)-2-methyl-5-(piperidin-4-ylamino)benzamide, reference compound], at SARS-CoV-2 PLpro, the “inhibitory potency of PROTAC and parent ligand in binary IC50 experiment (in words)” value is reported as “nM activity for PLpro”.
`Cc1ccc(NC(=O)CCCCCCCCC(=O)N[C@H](C(=O)N2C[C@H](O)C[C@H]2C(=O)NCc2ccc(-c3scnc3C)cc2)C(C)(C)C)cc1C(=O)N[C@H](C)c1cccc2ccccc12` [TS311]: in the experiment on SARS-CoV-2, the inhibition at 10 µM was under 0% and the inhibition at 50 µM is under 0%. This compound also registered a 50% inhibitory concentration (IC50) at SARS-CoV-2 PLpro of over 25 µM.
Consider `Cc1ccc(NC(=O)CCOCCNc2cccc3c2C(=O)N(C2CCC(=O)NC2=O)C3=O)cc1C(=O)N[C@H](C)c1cccc2ccccc12` (stereo partly drawn) [TS144], for which, in the experiment on SARS-CoV-2, the inhibition at 10 µM is under 0% and the inhibition at 50 µM was under 0%. Besides, the IC50 against SARS-CoV-2 PLpro was 10 to 25 µM.
Consider `C[C@H](c1cccc2ccccc12)N1CCC(C(=O)NCc2cc(F)cc(NC(=O)N3CCN(CCOCCOCCOc4cccc5c4C(=O)N(C4CCC(=O)NC4=O)C5=O)CC3)c2)CC1` (stereo partly drawn) [TS420], for which, in the experiment on SARS-CoV-2, the inhibition at 10 µM was under 25% and the inhibition at 50 µM is under 0%. For the same compound, the IC50 against SARS-CoV-2 PLpro was under 10 µM.
As to `C[C@H](c1cccc2ccccc12)N1CCC(C(=O)NCc2cc(F)cc(NC(=O)N3CCN(CCCCC(=O)N4CCN(c5ccc(N6CCC(=O)NC6=O)cc5)CC4)CC3)c2)CC1` [TS553], in the experiment on SARS-CoV-2, the inhibition at 10 µM was under 25% and the inhibition at 50 µM was under 25%. This compound also yielded an IC50 against SARS-CoV-2 PLpro of under 10 µM.
Consider `C[C@H](c1cccc2ccccc12)N1CCC(C(=O)NCc2cc(F)cc(NC(=O)N3CCN(CCCCCCOc4cccc5c4C(=O)N(C4CCC(=O)NC4=O)C5=O)CC3)c2)CC1` (stereo partly drawn) [TS444], for which, in the experiment with SARS-CoV-2, the inhibition at 10 µM is under 25% and the inhibition at 50 µM was under 25%. Also, the IC50 against SARS-CoV-2 PLpro is under 10 µM.
Regarding `C[C@H](c1cccc2ccccc12)N1CCC(C(=O)NCc2cc(F)cc(NC(=O)N3CCN(CCCCNC(=O)COc4ccc(C5CCC(=O)NC5=O)cc4)CC3)c2)CC1` (stereo partly drawn) [TS526], in the experiment on SARS-CoV-2, the inhibition at 10 µM was under 0% and the inhibition at 50 µM is under 25%. Also, the IC50 against SARS-CoV-2 PLpro was under 10 µM.
Consider `Cc1ccc(NC(=O)CCCCCOc2cc(-c3scnc3C)ccc2CNC(=O)[C@@H]2C[C@@H](O)CN2C(=O)[C@@H](NC(=O)C2(F)CC2)C(C)(C)C)cc1C(=O)N[C@H](C)c1cccc2ccccc12` (stereo in doubt) [TS291], for which, in the experiment with SARS-CoV-2, the inhibition at 10 µM was under 0% and the inhibition at 50 µM was under 25%. The IC50 at SARS-CoV-2 PLpro was over 25 µM.
In the case of `Cc1ccc(NC(=O)CCOCCOCCOCCNc2cccc3c2C(=O)N(C2CCC(=O)NC2=O)C3=O)cc1C(=O)N[C@H](C)c1cccc2ccccc12` (stereo partly drawn) [TS128], in the experiment on SARS-CoV-2, the inhibition at 10 µM was under 0% and the inhibition at 50 µM was under 0%. The compound further showed a concentration for half-maximal inhibition (IC50) against SARS-CoV-2 PLpro of under 10 µM.
As to `C[C@H](c1cccc2ccccc12)N1CCC(C(=O)NCc2cc(F)cc(NC(=O)N3CCN(CCOCCOCCC(=O)N4CCN(c5ccc(N6CCC(=O)NC6=O)cc5)CC4)CC3)c2)CC1` [TS569], in the experiment on SARS-CoV-2, the inhibition at 10 µM is under 0% and the inhibition at 50 µM was under 25%. This compound also had an IC50 on SARS-CoV-2 PLpro of under 10 µM.
As to `C[C@H](c1cccc2ccccc12)N1CCC(C(=O)NCc2cc(F)cc(NC(=O)N3CCN(CCNC(=O)COc4ccc(C5CCC(=O)NC5=O)cc4)CC3)c2)CC1` (stereo partly drawn) [TS519], in the experiment with SARS-CoV-2, the inhibition at 10 µM was under 25% and the inhibition at 50 µM is under 25%. The compound further displayed a half-inhibitory concentration (IC50) against SARS-CoV-2 PLpro of under 10 µM.
For `Cc1ccc(NC(=O)CCCCC(=O)N[C@H](C(=O)N2C[C@H](O)C[C@H]2C(=O)NCc2ccc(-c3scnc3C)cc2)C(C)(C)C)cc1C(=O)N[C@H](C)c1cccc2ccccc12` [TS309], in the experiment on SARS-CoV-2, the inhibition at 10 µM was under 0% and the inhibition at 50 µM was under 0%. Besides, the 50% inhibitory concentration (IC50) on SARS-CoV-2 PLpro is 10 to 25 µM.
As for `Cc1ccc(NC(=O)CCCCNc2cccc3c2C(=O)N(C2CCC(=O)NC2=O)C3=O)cc1C(=O)N[C@H](C)c1cccc2ccccc12` (stereo partly drawn) [TS267], in the experiment on SARS-CoV-2, the inhibition at 10 µM was under 0% and the inhibition at 50 µM is under 0%. Besides, on SARS-CoV-2 PLpro, the IC50 was under 10 µM.
Turning to `Cc1ccc(NC2CCNCC2)cc1C(=O)N[C@H](C)c1cccc(-c2ccc(CNC(=O)CCCCCOc3cccc4c3C(=O)N(C3CCC(=O)NC3=O)C4=O)s2)c1` (stereo partly drawn) [Compound C10778C], in the experiment with SARS-CoV-2, the inhibition at 10 µM is under 0% and the inhibition at 50 µM is under 0%. At SARS-CoV-2 PLpro, this compound showed an IC50 of under 10 µM.
In the case of `Cc1ccc(NC(=O)CCOCCNc2ccc3c4c(cccc24)C(=O)N(C2CCC(=O)NC2=O)C3=O)cc1C(=O)N[C@H](C)c1cccc2ccccc12` (stereo in doubt) [TS181], the “Antiviral Activity, 10 uM (cell viability assay)” value in the experiment with SARS-CoV-2 (10 uM, 4320 min) is “E (<0% = E)”. Also, in the experiment with SARS-CoV-2, the inhibition at 50 µM is under 0%.
The compound `Cc1ccc(NC(=O)CCCNc2cccc3c2C(=O)N(C2CCC(=O)NC2=O)C3=O)cc1C(=O)N[C@H](C)c1cccc2ccccc12` (stereo partly drawn) [TS145] came in with a half-inhibitory concentration (IC50) on SARS-CoV-2 PLpro of under 10 µM.
As to `Cc1ccc(NC2CCNCC2)cc1C(=O)N[C@H](C)c1cccc(-c2ccc(CNC(=O)CCCOc3cccc4c3C(=O)N(C3CCC(=O)NC3=O)C4=O)s2)c1` (stereo partly drawn) [Compound C10778A, N-((1R)-1-(3-(5-((4-((2-(2,6-Dioxopiperidin-3-yl)-1,3-dioxoisoindolin-4-yl)oxy)butanamido)methyl)thiophen-2-yl)phenyl)ethyl)-2-methyl-5-(piperidin-4-ylamino)benzamide], on SARS-CoV-2 PLpro, the 50% inhibitory concentration (IC50) is under 1 µM; the “inhibitory potency of PROTAC and parent ligand in binary IC50 experiment (in words)” value is listed as “retains nM activity for PLpro, similar to the parent compound”.
